Results on one molecule are retold here after patent US8461358B2, “Fluorescent probe for measuring protease” (The University of Tokyo, priority 2009, dated 2013).

The target of this assay is T1, leucine aminopeptidase, LAP (Sus scrofa, UniProt P15145).
T1 construct: purchased SIGMA L5006-25UN; host or cells: porcine kidney (tissue-derived)
T1 sequence (P15145 1-963): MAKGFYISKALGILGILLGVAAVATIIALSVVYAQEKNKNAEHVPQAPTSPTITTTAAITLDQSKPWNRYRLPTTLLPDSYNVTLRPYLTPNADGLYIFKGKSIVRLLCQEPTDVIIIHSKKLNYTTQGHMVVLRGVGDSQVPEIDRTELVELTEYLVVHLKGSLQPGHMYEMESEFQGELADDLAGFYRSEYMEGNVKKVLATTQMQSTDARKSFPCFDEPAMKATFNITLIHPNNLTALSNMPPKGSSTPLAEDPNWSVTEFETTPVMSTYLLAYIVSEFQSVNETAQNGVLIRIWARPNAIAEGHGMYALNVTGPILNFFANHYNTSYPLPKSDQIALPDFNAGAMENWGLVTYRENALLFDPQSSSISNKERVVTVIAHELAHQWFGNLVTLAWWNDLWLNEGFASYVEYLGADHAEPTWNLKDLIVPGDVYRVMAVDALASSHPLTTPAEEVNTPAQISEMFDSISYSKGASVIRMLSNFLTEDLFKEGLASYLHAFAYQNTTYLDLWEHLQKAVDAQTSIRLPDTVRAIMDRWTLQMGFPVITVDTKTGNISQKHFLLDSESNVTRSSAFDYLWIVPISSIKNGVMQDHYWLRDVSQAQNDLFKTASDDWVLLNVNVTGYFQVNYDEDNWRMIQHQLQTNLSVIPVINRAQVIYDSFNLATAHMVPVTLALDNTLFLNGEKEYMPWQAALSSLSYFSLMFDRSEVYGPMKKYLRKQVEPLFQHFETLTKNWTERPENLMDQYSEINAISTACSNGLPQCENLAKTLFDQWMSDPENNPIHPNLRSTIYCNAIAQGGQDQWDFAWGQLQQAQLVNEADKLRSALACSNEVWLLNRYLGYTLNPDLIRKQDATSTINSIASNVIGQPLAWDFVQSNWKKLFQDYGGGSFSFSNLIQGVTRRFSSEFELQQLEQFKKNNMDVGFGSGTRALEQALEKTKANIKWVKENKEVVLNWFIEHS
Kind of assay: Enzymatic reaction of probe with leucine aminopeptidase, fluorescence/absorption readout. The assay is classed as biochemical, porcine. To be noted: 5 μM compound. The method, then: Compound (2) (Leu-RhoHM) and Compound (3) (γGlu-RhoHM) formed by bonding acyl residues derived from leucine and glutamic acid to one amino group of Compound (1) (RhoHM), respectively, were each dissolved in a neutral phosphate buffer, and reacted with a protease (leucine aminopeptidase, LAP, porcine kidney, SIGMA L5006-25UN) and γ-glutamyl transpeptidase (GGT, equine kidney, SIGMA G9270-100UN). Specifically, 3 μL of a […] solution of each compound in dimethyl sulfoxide (DMSO) was dissolved in 3 mL of a 0.1 M sodium phosphate buffer (pH 7.4) at a final concentration of 5 μM, and each of LAP (0.15 U) and GGT (1.1 U) was added to the solution to allow an enzymatic reaction at 37° C. The excitation wavelength was 501 nm.
Further, each of the DMSO solutions of both compounds (5 mM) in a volume of 3 μL was dissolved in 3 mL of a 0.1 M sodium phosphate buffer (pH 7.4) at a final concentration of 5 μM, and the enzymatic reaction was performed at 37° C. The values of fluorescence intensity observed with each amount of the enzymes 1 minute (Leu-RhoHM) or 9 minutes (γGlu-RhoHM) after the addition of the enzyme were plotted. The excitation wavelength was 501 nm, and the fluorescence emission wavelength was 524 nm.
Enzyme specificity of Compounds (2) and (3) was examined. Each of the DMSO solutions (3 μL) was dissolved in 3 mL of a 0.1 M sodium phosphate buffer (pH 7.4) at a final concentration of 5 μM, and LAP (0.4 U) was added to the solution to perform the enzymatic reaction at 37° C.

The structures appear in SMILES notation.

In the case of `CC(C)C[C@H](N)C(=O)Nc1ccc2c(c1)Oc1cc(N)ccc1C21OCc2ccccc21` (stereo partly drawn) [Compound (2)], the “change of absorption and fluorescence intensity on reaction with LAP” value (0.1 M sodium phosphate buffer pH 7.4, LAP 0.15 U, 37° C., excitation 501 nm) was “prompt marked increase of absorption and fluorescence intensity”. Further, for the setting “0.1 M sodium phosphate buffer pH 7.4, LAP 0.4 U, 37° C.”, the “change of fluorescence intensity after reaction with LAP (enzyme specificity)” value is given as “marked increase of fluorescence intensity”. For the setting “pH 7.4, 37° C., 1 minute after addition of the enzyme, excitation 501 nm, emission 524 nm”, the “fluorescence intensity versus added LAP amount” value is “linear increase of fluorescence intensity”.
